In patent US5561042A, “Diamine platinum naphthalimide complexes as antitumor agents” (Cancer Therapy and Research Center, priority 1995, dated 1996):

How the values were obtained:
[1] = test system: Murine B16 melanoma cell line; experiment: In vitro growth inhibition (MTT), B16 melanoma; assay type: cell-based; details: MTT, 3 days
Description: (§1) P388 murine leukemic cell line was obtained from the DCT Tumor Repository (National Cancer Institute, Frederick Cancer Research and Development, Frederick Md. 21702). HT29 Human Colon Carcinoma cell line was obtained from the American Type Culture Collection (12301 Parklawn Drive, Rockville, Md. 20852). B16 Melanoma cell line was obtained from DuPont Merck Pharmaceutical Company (Glenolden, Pa. 19036). MCF-7 Human Breast Carcinoma cell line was a gift from Dr. K. Osborne (Department of Medicine, The University of Texas Health Science Center at San Antonio, San Antonio, Tex. 78284). All cell lines were incubated at 37° C. in a humidified atmosphere of 5% CO2 -95% air. Murine B16 melanoma cell line was grown in RPMI 1640 medium supplemented with 10% heat-inactivated fetal bovine serum, 2 mM L-glutamine, 50 units/ml penicillin, 50 μg/ml streptomycin, 25 μg/ml gentamycin, 0.75% sodium bicarbonate, 10 mM HEPES buffer (pH 7.4), and 0.06 mg/ml AntiPPLO. Murine P388 leukemic and the human HT-29 colon adenocarcinoma cell lines were maintained in RPMI 1640 medium supplemented with 10% heat-inactivated fetal bovine serum. MCF-7M human breast adenocarcinoma was maintained in IMEM medium supplemented with 5% non heat-inactivated fetal bovine serum and 1 nM insulin.
(§2) Exponentially growing cells (1-2×10^3 cells, unless specified otherwise) in 0.1 ml medium were seeded on day 0 in a 96-well microtiter plate. On day 1, 0.1 ml aliquots of medium containing graded concentrations of test compounds were added in duplicate to the cell plates. After incubation at 37° C. in a humidified incubator for 3 days (P388, B16) or 6 days (HT-29, MCF-7M), the plates were centrifuged briefly and 100 μl of the growth medium was removed. Cell cultures were incubated with 50 μl of 3-(4,5-dimethylthiazol-2-yl)-2,5-diphenyl-tetrazolium bromide [MTT, 1 mg/ml in Dulbecco's phosphate buffered saline (PBS)] for 4 hr at 37° C. The resulting purple formazan precipitate was solubilized with 200 μl of 0.04N HCl in isopropyl alcohol. Absorbance was monitored in a BioRad Model 3550 Microplate Reader at a test wavelength of 570 nm and a reference wavelength of 630 nm. The absorbance was transferred to a PC 486 computer. The IC50 values were determined by a computer program (EZ-ED50) that fit all of the data to the following four-parameterlogistic equation:
(§3) Y=((Am -Ao)/(1+(X/IC50)^n))+Ao
(§4) where Am is the absorbance of control cells, Ao is the absorbance of cells in the presence of highest agent concentration, Y is the observed absorbance, X is the agent concentration, IC50 is the concentration of agent that inhibits the cell growth by 50% of control cells (based on the absorbance) and n is the slope of the curve.

[2] = test system: P388 murine leukemic cell line; experiment: In vitro growth inhibition (MTT), P388 leukemia; assay type: cell-based; details: 3 days
Description: as §1, §2, §3, §4

[3] = molecular target: poly (dA.dT) - poly (dA.dT); experiment: Ethidium bromide displacement, poly(dA.dT)-poly(dA.dT); assay type: binding; details: 1 μM DNA, 1.26 μM ethidium bromide, pH 7.0, read-out: FI50, poly (dA.dT) - poly (dA.dT)
Protocol: (§5) A 10× Binding solution was prepared by combining 0.93 ml of an aqueous NaCl solution (5M), 2.0 ml of an aqueous Tris HCl (500 mM) solution, 0.1 ml of an EDTA solution (500 mM) and 46.97 ml of water. The resultant solution was 93 mM in NaCl, 20 mM in Tris HCl, and 1 mM in EDTA. Stock DNA solution were prepared as follows: Poly (dG·dC)-(dG·dC) (ε254=8.4/mM; 27-7910-02), poly(dA·dT)-(dA·dT) (ε262=6.6/mM; 27-7870-02), and lambda DNA (ε260-7.0/mM; 27-4111-01) were purchased from Pharmacia. Solutions were prepared by resuspending either poly (dG·dC)-(dG·dC) or poly(dA·dT)-(dA·dT)in 1 ml of 10× DNA Binding Solution. Lambda DNA is already in solution as purchased.
(§6) Poly (dG·dC)-(dG·dC), poly(dA·dt)-(dA·dt) and lambda DNA concentrations were determined as follows: 980 μl of 10× DNA Binding Solution was pipetted into a 1 ml cuvette. A blank was run on the UV spectrophotometer. 20 μl of the DNA stock of unknown concentration was then added into the cuvette. The sample was then scanned between 210 nm to 500 nm and the absorbance recorded at 254 nm for poly(dG·dC)-(dG·dC), at 262 nm for poly(dA·dT)-(dA·dT) and at 260 nm for lambda DNA. The solution was transferred to a clean tube. This procedure was followed for three different solutions with the absorbance taken as the average of the three. The concentration of poly(dG·dC)-(dG·dC) stock was calculated to be A254 /8.4×1000 (in μM). The concentration of poly(dA·dT)-(dA·dT) stock was calculated to be A262 /6.6×1000 (in μM). The concentration of lambda DNA stock was calculated to be A260 /7.0×1000 (in μM).
(§7) The binding of the bis-naphthalimides to DNA and to synthetic polynucleotide duplexes was determined by an ethidium bromide displacement assay that measures the reduction of fluorescence when ethidium bromide is displaced from DNA (Baguley, 1981). The fluorescence intensity of a 3 ml solution containing 9.3 mM NaCl, 2 mM Tris-HCl (pH 7.0), 100 μM EDTA, 1 μM DNA (in nucleotides) and 1.26 μM ethidium bromide in a quartz cuvette was measured at the excitation (546 nm) and emission (600 nm) wavelengths on a Shimadzu RF5000U spectrofluorometer. Graded concentrations of agent were then added and the fluorescence intensity was measured. The concentration of compound required to reduce the fluorescence intensity by 50% of that of control (FI50) was determined. Therefore, the lower the FI50 the stronger the binding affinity a particular compound has for DNA.
(§8) The ability of bis-naphthalimides of the present invention and the known anti-cancer agents compound 22 and DMP840, (R,R)-2,2'[1,2-ethanediylbis[imino(1-methyl-2,1-ethanediyl)]]-bis[5-nitro- 1H benz[de]isoquinoline-1,3-(2H)dione]dimethanesulfonate, to bind to DNA and to synthetic oligonucleotide duplexes was measured using an ethidium bromide displacement assay. Ethidium bromide, a known DNA intercalator, has no fluorescence in the absence of DNA; however, fluorescence intensity increases when ethidium bromide binds to DNA. The ethidium bromide displacement assay measures the decrease in fluorescence intensity caused by DNA-bound ethidium bromide with DNA interacting agents.

[4] = test system: poly (dG.dC) - poly (dG.dC); experiment: Ethidium bromide displacement, poly(dG.dC)-poly(dG.dC); assay type: binding
Protocol: as §5, §6, §7, §8

[5] = test system: HT29 Human Colon Carcinoma cell line; experiment: In vitro growth inhibition (MTT), HT29 colon carcinoma; assay type: cell-based; details: 6 days
Description: as §1, §2, §3, §4

Substance: 8-(3'-nitro-1',8'-naphthalimide)-3,6-diazaoctylamine dichloroplatinum(II) [Compound 21]
- IC50 [1]: 385 nM
- IC50 [2]: 302 nM
- IC50 [3]: 173 nM
- Ratio (AT/GC) ([4]; FI50 poly(dA.dT)-poly(dA.dT) / FI50 poly(dG.dC)-poly(dG.dC)): 0.72
- IC50 ([4]; ethidium bromide displacement, 1 μM DNA, 1.26 μM ethidium bromide, pH 7.0, read-out: FI50, poly (dG.dC) - poly (dG.dC)): 239 nM
- IC50 [5]: 129 nM
